One may read the IC50 as the concentration that gives 50% inhibition.

Molecules are shown by their SMILES.

Among the data in US20210070748A1, “INHIBITORS OF BRUTONS TYROSINE KINASE” (Pharmacyclics LLC, priority 2015, published 2021) are IC50 values, retold here.

Holding throughout (format): biochemical
For experiment [1], the target named is LCK (Homo sapiens, UniProt P06239). As to the kind of experiment: Inhibition of a panel of kinases, in vitro HotSpot kinase assay: LCK. The conditions noted are these: D-compounds panel data; 1 μM ATP; read-out: IC50 LCK.
LCK, sequence (P06239 whole entry): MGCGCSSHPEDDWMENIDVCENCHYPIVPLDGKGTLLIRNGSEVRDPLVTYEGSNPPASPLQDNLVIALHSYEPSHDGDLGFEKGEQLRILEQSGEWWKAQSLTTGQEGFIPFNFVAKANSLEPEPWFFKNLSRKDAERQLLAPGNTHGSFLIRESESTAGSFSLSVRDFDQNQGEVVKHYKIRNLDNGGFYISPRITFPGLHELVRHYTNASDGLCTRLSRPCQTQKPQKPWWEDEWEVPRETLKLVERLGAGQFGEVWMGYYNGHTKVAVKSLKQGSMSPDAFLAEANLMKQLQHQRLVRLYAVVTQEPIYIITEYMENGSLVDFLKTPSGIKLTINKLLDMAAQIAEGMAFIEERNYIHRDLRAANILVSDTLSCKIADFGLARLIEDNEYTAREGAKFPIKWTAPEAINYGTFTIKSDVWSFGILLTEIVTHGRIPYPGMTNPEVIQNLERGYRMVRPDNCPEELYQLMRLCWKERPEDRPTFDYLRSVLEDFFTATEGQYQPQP
The target of experiment [2] is T1, ITK (Homo sapiens, UniProt Q08881).
T1 sequence (Q08881 1-620): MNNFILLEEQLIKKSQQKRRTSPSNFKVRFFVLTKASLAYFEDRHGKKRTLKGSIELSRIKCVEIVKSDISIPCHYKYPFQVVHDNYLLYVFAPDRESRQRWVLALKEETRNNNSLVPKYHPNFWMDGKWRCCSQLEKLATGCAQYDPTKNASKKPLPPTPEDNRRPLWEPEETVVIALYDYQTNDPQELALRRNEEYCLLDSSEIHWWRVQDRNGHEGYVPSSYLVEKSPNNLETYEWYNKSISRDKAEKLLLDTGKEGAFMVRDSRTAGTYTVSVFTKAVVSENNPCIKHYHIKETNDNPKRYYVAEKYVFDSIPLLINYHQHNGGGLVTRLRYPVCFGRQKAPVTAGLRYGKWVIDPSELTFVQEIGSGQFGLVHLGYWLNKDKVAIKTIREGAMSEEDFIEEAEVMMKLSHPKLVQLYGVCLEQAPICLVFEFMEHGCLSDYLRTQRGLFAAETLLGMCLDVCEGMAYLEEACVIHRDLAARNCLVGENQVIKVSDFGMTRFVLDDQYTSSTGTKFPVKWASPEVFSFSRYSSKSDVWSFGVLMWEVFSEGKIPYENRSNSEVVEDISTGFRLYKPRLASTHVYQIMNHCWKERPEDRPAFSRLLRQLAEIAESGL
Kind of experiment: Inhibition of a panel of kinases, in vitro HotSpot kinase assay: ITK. The conditions noted are these: D-compounds panel data; 1 μM ATP. On the procedure: (§1) The degree of inhibition of a panel of kinases is determined using the in vitro HotSpot kinase assay (purified enzymes, ^33P-ATP, an appropriate substrate and 1 μM ATP).

The target in experiment [3] is T2, TEC (Homo sapiens, UniProt P42680).
T2 sequence (P42680 1-631): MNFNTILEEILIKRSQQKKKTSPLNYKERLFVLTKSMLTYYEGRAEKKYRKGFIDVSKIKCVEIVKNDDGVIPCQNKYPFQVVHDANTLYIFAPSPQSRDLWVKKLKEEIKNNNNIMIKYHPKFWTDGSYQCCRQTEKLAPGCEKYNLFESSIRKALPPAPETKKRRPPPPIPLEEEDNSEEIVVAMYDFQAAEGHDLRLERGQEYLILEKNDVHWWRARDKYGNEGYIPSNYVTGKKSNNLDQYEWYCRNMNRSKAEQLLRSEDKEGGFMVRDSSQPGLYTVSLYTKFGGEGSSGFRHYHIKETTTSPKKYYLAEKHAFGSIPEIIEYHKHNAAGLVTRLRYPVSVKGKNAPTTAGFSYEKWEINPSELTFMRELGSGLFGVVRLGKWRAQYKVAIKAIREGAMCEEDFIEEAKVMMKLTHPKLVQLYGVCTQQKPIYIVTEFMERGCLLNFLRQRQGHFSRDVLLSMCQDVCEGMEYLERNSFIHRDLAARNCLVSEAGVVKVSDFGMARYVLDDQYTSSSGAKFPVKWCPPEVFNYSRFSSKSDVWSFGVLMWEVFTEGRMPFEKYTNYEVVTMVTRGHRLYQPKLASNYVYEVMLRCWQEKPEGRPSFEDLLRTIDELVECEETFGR
As to the kind of experiment: Inhibition of a panel of kinases, in vitro HotSpot kinase assay: TEC. The note with it: D-compounds panel data; 1 μM ATP. On the procedure: as §1

On to `C[C@@H]1[C@H](NC(=O)c2ccc(SC(F)(F)F)cc2)CCCN1c1cnc(C(N)=O)c(Nc2cnn(C)c2)n1` [Example D-241, 3-[(1-methyl-1H-pyrazol-4-yl)amino]-5-[(2R,3R)-2-methyl-3-{4-[(trifluoromethyl)sulfanyl]benzamido}piperidin-1-yl]pyrazine-2-carboxamide], for which the IC50 was 100 to 1000 nM in experiment [1], 1000 to 10000 nM in experiment [2] and 10 to 100 nM in experiment [3].
As to `C[C@@H]1[C@H](NC(=O)c2ccc(C3CC3)cc2)CCCN1c1cnc(C(N)=O)c(Nc2cnn(C)c2)c1` [Example D-207, 5-[(2R,3R)-3-(4-cyclopropylbenzamido)-2-methylpiperidin-1-yl]-3-[(1-methyl-1H-pyrazol-4-yl)amino]pyridine-2-carboxamide], the 50% inhibitory concentration (IC50) in experiment [1] lay in the range of 100 to 1000 nM; in experiment [2], 1000 to 10000 nM; in experiment [3] it was 100 to 1000 nM.
On to `Cn1cc(Nc2nc(N3CC(NC(=O)c4ccc(C5CC5)cc4)CC(F)(F)C3)cnc2C(N)=O)cn1` (stereo in doubt) [Example D-190, 5-[(5S)-5-(4-cyclopropylbenzamido)-3,3-difluoropiperidin-1-yl]-3-[(1-methyl-1H-pyrazol-4-yl)amino]pyrazine-2-carboxamide], for which the half-maximal inhibitory concentration (IC50) in experiment [1] was in the range of 100 to 1000 nM; in experiment [2] it was 1000 to 10000 nM; in experiment [3], 100 to 1000 nM.
Turning to `CC1(c2ccc(Nc3nc(N4CCC[C@@H](n5ccc6cc(C7CC7)ccc6c5=O)C4)cnc3C(N)=O)cc2)CCN(C2CCCC2)CC1` [Example D-177, 3-{[4-(1-cyclopentyl-4-methylpiperidin-4-yl)phenyl]amino}-5-[(3R)-3-(6-cyclopropyl-1-oxo-1,2-dihydroisoquinolin-2-yl)piperidin-1-yl]pyrazine-2-carboxamide], the IC50 in experiment [1] was 10 to 100 nM; in experiment [2], 10 to 100 nM; in experiment [3], at most 10 nM.
`C[C@@H]1[C@H](NC(=O)c2ccc(C3CC3)nc2)CCCN1c1cnc(C(N)=O)c(Nc2ccc(N3CCN(C)CC3)cc2)n1` [Example D-203, 5-[(2R,3R)-3-(6-cyclopropylpyridine-3-amido)-2-methylpiperidin-1-yl]-3-{[4-(4-methylpiperazin-1-yl)phenyl]amino}pyrazine-2-carboxamide]: the IC50 in experiment [1] is 10 to 100 nM; in experiment [2], 10 to 100 nM; in experiment [3] it was at most 10 nM.
Consider `C[C@@H]1[C@H](NC(=O)c2ccc(C3CC3)cc2)CCCN1c1cnc(C(N)=O)c(Nc2cnn(C3CCN(C)CC3)c2)n1` [Example D-185, 5-[(2R,3R)-3-(4-cyclopropylbenzamido)-2-methylpiperidin-1-yl]-3-{[1-(1-methylpiperidin-4-yl)-1H-pyrazol-4-yl]amino}pyrazine-2-carboxamide], for which the 50% inhibitory concentration (IC50) lay in the range of 10 to 100 nM in experiment [1], 100 to 1000 nM in experiment [2] and 10 to 100 nM in experiment [3].
Take `C[C@@H]1[C@H](NC(=O)N(C)C)CCCN1c1cnc(C(N)=O)c(Nc2ccc(N3CCN(C)CC3)cn2)n1` [Example D-180, 5-[(2R,3R)-3-[(dimethylcarbamoyl)amino]-2-methylpiperidin-1-yl]-3-{[5-(4-methylpiperazin-1-yl)pyridin-2-yl]amino}pyrazine-2-carboxamide]: the IC50 in experiment [1], in experiment [2] and in experiment [3] was over 10000 nM throughout.
Regarding `C[C@@H]1[C@H](NC(=O)c2ncc(C3CC3)cn2)CCCN1c1cnc(C(N)=O)c(Nc2cnn(C)c2)n1` [Example D-198, 5-[(2R,3R)-3-(5-cyclopropylpyrimidine-2-amido)-2-methylpiperidin-1-yl]-3-[(1-methyl-1H-pyrazol-4-yl)amino]pyrazine-2-carboxamide], the IC50 in experiment [1] was in the range of 10 to 100 nM; in experiment [2], 100 to 1000 nM; in experiment [3], 10 to 100 nM.
On to `C[C@@H]1[C@H](NC(=O)c2cnc(C(C)(C)C)s2)CCCN1c1cnc(C(N)=O)c(Nc2cnn(C)c2)n1` [Example D-239, 5-[(2R,3R)-3-(2-tert-butyl-1,3-thiazole-5-amido)-2-methylpiperidin-1-yl]-3-[(1-methyl-1H-pyrazol-4-yl)amino]pyrazine-2-carboxamide], for which the IC50 was 10 to 100 nM in experiment [1], 100 to 1000 nM in experiment [2] and at most 10 nM in experiment [3].
